ChEMBL document CHEMBL5346923, “Novel pyridinium cationic pleuromutilin analogues overcoming bacterial multidrug resistance” (Eur J Med Chem, 2023)

Key:
[1] = test system: Staphylococcus aureus; test: Antibacterial activity against methicillin-resistant Staphylococcus aureus infected in rabbit RBC assessed as reduction in alpha-heamolysin by absorbance based analysis; type: functional, organism-based; conditions: Erythrocyte
[2] = test system: Staphylococcus aureus; test: Antibacterial activity against methicillin-resistant Staphylococcus aureus infected in rabbit RBC assessed as reduction in alpha-heamolysin at 0.25 times of MIC by absorbance based analysis; type: functional, Erythrocyte; set-up: scale not given: the % may be the effect or the level left
[3] = test system: Staphylococcus aureus; test: Antibacterial activity against methicillin-resistant Staphylococcus aureus infected in rabbit RBC assessed as reduction in alpha-heamolysin at 0.5 times of MIC by absorbance based analysis; type: functional, Erythrocyte; set-up: scale not given: the % may be the effect or the level left
[4] = test system: Staphylococcus aureus; test: Antibacterial activity against methicillin-resistant Staphylococcus aureus infected in rabbit RBC assessed as reduction in alpha-heamolysin at 1 times of MIC by absorbance based analysis; type: functional, Erythrocyte; set-up: scale not given: the % may be the effect or the level left

C=C[C@]1(C)C[C@@H](OC(=O)CSc2cc[n+](CCCCCCC)cc2)[C@]2(C)[C@H](C)CC[C@]3(CCC(=O)[C@H]32)[C@@H](C)[C@@H]1O.[I-]
Activity [1]: Dose-Dependent Effect
Activity [2]: 25%
Activity [3]: 34%
Activity [4]: 93%
